Measurements reported in the supplement of paper PMC13380429.

Assays:
Details in all cases: 72 h
[1] = system: Calu-3; experiment: drug sensitivity score (DSS) for viability; higher = more toxic; extreme values may be limits of the assay
[2] = system: HepG2; experiment: as above
[3] = system: U2OS; experiment: as above
[4] = system: Caco-2; experiment: as above
[5] = system: Vero E6; experiment: as above
[6] = system: Calu-3; experiment: relative viability EC50 (midpoint between 100% and the lowest measured viability); higher = less toxic
[7] = system: HepG2; experiment: as above
[8] = system: U2OS; experiment: as above
[9] = system: Caco-2; experiment: as above
[10] = system: Vero E6; experiment: as above
[11] = system: Calu-3; experiment: cell viability relative to DMSO; higher = less toxic
[12] = system: HepG2; experiment: as above
[13] = system: U2OS; experiment: as above
[14] = system: Caco-2; experiment: as above
[15] = system: Vero E6; experiment: as above

SMILES | drug sensitivity score [1] | drug sensitivity score [2] | drug sensitivity score [3] | drug sensitivity score [4] | drug sensitivity score [5] | relative viability EC50 [6] | relative viability EC50 [7] | relative viability EC50 [8] | relative viability EC50 [9] | relative viability EC50 [10] | cell viability ([11]; 1 nM) | cell viability ([11]; 10 nM) | cell viability ([11]; 100 nM) | cell viability ([11]; 1000 nM) | cell viability ([11]; 10000 nM) | cell viability ([12]; 1 nM) | cell viability ([12]; 10 nM) | cell viability ([12]; 100 nM) | cell viability ([12]; 1000 nM) | cell viability ([12]; 10000 nM) | cell viability ([13]; 1 nM) | cell viability ([13]; 10 nM) | cell viability ([13]; 100 nM) | cell viability ([13]; 1000 nM) | cell viability ([13]; 10000 nM) | cell viability ([14]; 1 nM) | cell viability ([14]; 10 nM) | cell viability ([14]; 100 nM) | cell viability ([14]; 1000 nM) | cell viability ([14]; 10000 nM) | cell viability ([15]; 1 nM) | cell viability ([15]; 10 nM) | cell viability ([15]; 100 nM) | cell viability ([15]; 1000 nM) | cell viability ([15]; 10000 nM)
Clc1ccc([C@]23CNC[C@H]2C3)cc1Cl [amitifadine] | 0 | 0 | 0 | 0 | 0 | > 10 µM | > 10 µM | > 10 µM | > 10 µM | > 10 µM | 106% | 90.7% | 101% | 105% | 97.9% | 89.5% | 104% | 98.2% | 98.6% | 94.9% | 100% | 97.6% | 103% | 98.4% | 104% | 99.2% | 92% | 103% | 87.3% | 95.8% | 101% | 105% | 100% | 103% | 99%
CCOc1cc([C@@H](CS(C)(=O)=O)N2C(=O)c3cccc(NC(C)=O)c3C2=O)ccc1OC [apremilast] | 0 | 0 | 0 | 0 | 0 | > 10 µM | > 10 µM | > 10 µM | > 10 µM | > 10 µM | 102% | 108% | 89.8% | 99.9% | 108% | 102% | 95% | 101% | 84.1% | 100% | 93.1% | 101% | 97.8% | 92.7% | 99.1% | 93.4% | 100% | 98.8% | 97.3% | 106% | 104% | 104% | 98.7% | 99.6% | 99.6%
C[C@@H](O[C@H]1OCCN(Cc2n[nH]c(=O)[nH]2)[C@H]1c1ccc(F)cc1)c1cc(C(F)(F)F)cc(C(F)(F)F)c1 [aprepitant] | 0 | 0 | 0 | 0 | 0 | > 10 µM | > 10 µM | > 10 µM | > 10 µM | > 10 µM | 90.9% | 105% | 103% | 97.7% | 97.1% | 102% | 103% | 106% | 109% | 95.3% | 99.5% | 103% | 95.3% | 102% | 88.4% | 100% | 107% | 100% | 105% | 89.2% | 97.4% | 104% | 98.8% | 103% | 103%
CC1=C(/C=C/C(C)=C/C=C/C(C)=C/C=C/C=C(C)/C=C/C=C(C)/C=C/C2=C(C)C(=O)[C@@H](O)CC2(C)C)C(C)(C)C[C@H](O)C1=O [astaxanthin] | 0 | 0 | 0 | 3.6 | 0 | > 10 µM | > 10 µM | > 10 µM | > 10 µM | > 10 µM | 98.9% | 97.6% | 101% | 96.4% | 99.6% | 84.3% | 102% | 98.9% | 102% | 107% | 97.8% | 104% | 100% | 93.6% | 98.4% | 103% | 109% | 84% | 84.8% | 81.9% | 102% | 96.9% | 103% | 101% | 92.1%
O=C(Nc1nc(-c2cc(Cl)cs2)c(N2CCN(C3CCCCC3)CC2)s1)c1cnc(N2CCC(C(=O)O)CC2)c(Cl)c1 [avatrombopag] | 0 | 0 | 0 | 0 | 0 | > 10 µM | > 10 µM | > 10 µM | > 10 µM | > 10 µM | 96.2% | 100% | 93.9% | 102% | 88.9% | 99.4% | 109% | 115% | 98% | 110% | 103% | 95.5% | 104% | 103% | 95.1% | 94.9% | 88.7% | 102% | 105% | 107% | 100% | 95% | 102% | 102% | 92%
O=C(N[C@@H](Cc1c[nH]c2ccccc12)C(=O)O)c1ccc(Cl)cc1 [benzotript] | 0 | 0 | 0 | 0 | 0 | > 10 µM | > 10 µM | > 10 µM | > 10 µM | > 10 µM | 87.8% | 99.4% | 98% | 100% | 108% | 99.7% | 98.1% | 102% | 103% | 108% | 96% | 99.5% | 94.3% | 101% | 95.9% | 99.9% | 102% | 101% | 100% | 99.4% | 104% | 99.3% | 98.1% | 102% | 107%
CC1(C)CCC2=C(O1)c1ccccc1C(=O)C2=O [beta-lapachone] | 0 | 5.2 | 4.8 | 4.4 | 0 | > 10 µM | 3.12 µM | 2.83 µM | 2.75 µM | > 10 µM | 109% | 91.4% | 110% | 106% | 91.2% | 107% | 99.3% | 94.4% | 99.5% | 7.5% | 106% | 100% | 101% | 96.5% | 21.5% | 101% | 96.5% | 91.9% | 96.3% | 29.9% | 104% | 105% | 101% | 102% | 91.6%
O=C1c2ccccc2C(=O)C1c1ccc(Br)cc1 [bromindione] | 0 | 0 | 0 | 0 | 0 | > 10 µM | > 10 µM | > 10 µM | > 10 µM | > 10 µM | 107% | 93.8% | 103% | 95.6% | 106% | 103% | 103% | 107% | 108% | 99.5% | 104% | 99.7% | 102% | 96.5% | 102% | 105% | 70.7% | 95.6% | 80.8% | 96.3% | 102% | 103% | 103% | 104% | 99.4%
CCN(CC)CCNC(=O)c1cc(Br)c(N)cc1OC [bromopride] | 0 | 0 | 0 | 0 | 0 | > 10 µM | > 10 µM | > 10 µM | > 10 µM | > 10 µM | 102% | 99% | 95.8% | 104% | 111% | 94.6% | 102% | 99% | 105% | 101% | 101% | 99.1% | 105% | 99.4% | 101% | 89.7% | 96.1% | 97.4% | 94.6% | 102% | 95.9% | 100% | 92.9% | 99.8% | 104%
CC[C@H](C)[C@@H]1NC(=O)[C@H](Cc2ccc(OC)cc2)NC(=O)CCCSC[C@@H](C(=O)N2CCC[C@H]2C(=O)N[C@@H](CC(C)C)C(=O)NCC(N)=O)NC(=O)[C@H](CC(N)=O)NC(=O)[C@H](CCC(N)=O)NC1=O [carbetocin] | 0.6 | 0 | 0 | 0.3 | 0 | > 10 µM | > 10 µM | > 10 µM | > 10 µM | > 10 µM | 103% | 104% | 102% | 106% | 75.7% | 103% | 103% | 91.3% | 99.7% | 93.3% | 94.9% | 91.3% | 98.4% | 95.2% | 100% | 99.7% | 98.6% | 97.3% | 90.5% | 87.4% | 104% | 104% | 99.3% | 101% | 95.8%
C[N+](C)(C)CC(O)CC(=O)[O-] (stereo not given) [carnitine-(D/L)] | 0 | 2.2 | 0 | 0.7 | 0 | > 10 µM | > 10 µM | > 10 µM | > 10 µM | > 10 µM | 96.9% | 102% | 109% | 99.9% | 94.3% | 98.1% | 82.5% | 92.1% | 86.3% | 80.9% | 94.1% | 94.4% | 87.2% | 80.6% | 95.9% | 105% | 77.6% | 100% | 81.8% | 89.7% | 100% | 101% | 91% | 106% | 104%
